The record followed here is patent US20080170998A1 (priority 2005, published 2008).

The test system of experiment [1] is Treponema denticola ATCC 33520 strain. The experiment is described as follows: Growth of periodontopathic bacteria in pRH-containing medium (turbidity O.D.660 nm). The class given is cell-based. Conditions: 500 μg/mL, FIG. 9. The protocol: (§1) Each of the above cryopreserved strains was anaerobically cultivated at 35° C. for 48 hours by using TSB medium to which yeast extract (1 g/L), hemin ([…]), and menadione (1 mg/L) were added to provide a precultured bacterial culture.

Experiment [2] deals with Actinobacillus actinomycetemcomitans ATCC 29523 stain, Y4 strain. Described as above. The following applies: 500 μg/mL; ATCC 29523 and Y4 strains; FIGS. 5, 6. The class given is cell-based. The protocol:
as §1

The subject of experiment [3] is Porphyromonas gingivalis ATCC 33277 strain, W50 strain. Described as above. Conditions: 500 μg/mL; ATCC 33277 and W50 strains; FIGS. 1, 2. The class given is cell-based. The protocol: as §1
For experiment [4], the system named is Prevotella intermedia ATCC 49046 strain. The experiment is described as above. The class given is cell-based. The following applies: 500 μg/mL, FIG. 3. The protocol: as §1
The subject of experiment [5] is Fusobacterium nucleatum ATCC 23726 strain, ATCC 25586 strain. Described as above. The class given is cell-based. Conditions: 500 μg/mL; ATCC 23726 and ATCC 25586 strains; FIGS. 7, 8. The protocol:
as §1

For experiment [6], the system named is Porphyromonas gingivalis ATCC 33277 strain and Streptococcus oralis ATCC 9811 strain. The following applies: pRH solution 2.5 mg/mL; PBS pH 6.0, 37° C.; FIG. 13.
Experiment [7] relates to Prevotella nigrescens ATCC 25261 strain. The following applies: O.D.660 nm after 24 hours and 48 hours, FIG. 4.
Experiment [8] has as its system Porphyromonas gingivalis ATCC 33277 strain. The class given is cell-based. Conditions: 0.1 mg/mL, 1 mg/mL, 10 mg/mL.
Experiment [9] concerns arginine-specific protease (Arg-gingipain; RGP). As to the kind of experiment: Protease inhibition, fluorogenic substrate Bz-Arg-methylcoumarinamide, culture supernatant. The class given is biochemical, Porphyromonas gingivalis. The following applies: substrate 100 μM, 15 minutes room temperature. The protocol:
Enzyme activity inhibitions of an arginine-specific protease (Arg-gingipain; hereinafter, referred to as “RGP”) and lysin-specific protease (Lys-gingipain; hereinafter, referred to as “KGP”) as dominant virulence factor for Porphyromonas gingivalis were examined.
The reaction was stopped by adding 2 mM TLCK, and released methyl-coumarin-amide was measured by means of spectrophotofluorometer (excitation wavelength: 380 nm, fluorescence wavelength: 460 nm).
Furthermore, an inhibition rate was defined according to the Equation (1):
Inhibition rate(%)=(Blank fluorescence intensity−Sample fluorescence intensity)÷Blank fluorescence intensity×100 (1)
Blank fluorescence intensity indicates fluorescence intensity upon reaction without adding pRH. Sample fluorescence intensity indicates fluorescence intensity upon reaction with adding pRH.

Some results are limits rather than exact numbers.

Turning to polyarginyl histidine [pRH], the growth inhibitory effect result in experiment [1], in [2], in [3], in [4] and in experiment [5] was “not observed” each time. In addition, the “aggregation inhibitory activity (inhibition rate of coaggregation)” value in experiment [6] is reported as 33%. Moreover, the “concentration at which a growth inhibitory effect was observed” value in [7] was at least 100 µg/mL. In experiment [8], the “inhibition of the absorption (adhesion) of Porphyromonas gingivalis for sHA” value is listed as “obviously inhibited”. Moreover, the entries for the “inhibition rate for RGP” value in experiment [9] (pRH at 100 μg/mL) and in experiment [9] (pRH at 1000 μg/mL) were 0.2% and 7.7%, respectively.

In the case of polylysine [reference compound], the “inhibition of the absorption (adhesion) of Porphyromonas gingivalis for sHA” value in experiment [8] is on record as “did not inhibit”.
